Measured values as given in PMC10023787, “Trio-pharmacophore DNA-encoded chemical library for simultaneous selection of fragments and linkers” (Nature Communications, 2023).
“Also recorded” adds a separate entry of the source. Read-outs that look alike come from different tables or passages of the source.

Key:
MMP-9 [1] = target: T1, MMP-9 (Homo sapiens, UniProt P14780); test: MMP-9 inhibition assay (fluorogenic peptide substrate); assay type: biochemical; conditions: for inhibitory effect: in words
T1 construct: purchased Sino Biological 10327-HNAH
T1 sequence (P14780 107-707 limits assumed): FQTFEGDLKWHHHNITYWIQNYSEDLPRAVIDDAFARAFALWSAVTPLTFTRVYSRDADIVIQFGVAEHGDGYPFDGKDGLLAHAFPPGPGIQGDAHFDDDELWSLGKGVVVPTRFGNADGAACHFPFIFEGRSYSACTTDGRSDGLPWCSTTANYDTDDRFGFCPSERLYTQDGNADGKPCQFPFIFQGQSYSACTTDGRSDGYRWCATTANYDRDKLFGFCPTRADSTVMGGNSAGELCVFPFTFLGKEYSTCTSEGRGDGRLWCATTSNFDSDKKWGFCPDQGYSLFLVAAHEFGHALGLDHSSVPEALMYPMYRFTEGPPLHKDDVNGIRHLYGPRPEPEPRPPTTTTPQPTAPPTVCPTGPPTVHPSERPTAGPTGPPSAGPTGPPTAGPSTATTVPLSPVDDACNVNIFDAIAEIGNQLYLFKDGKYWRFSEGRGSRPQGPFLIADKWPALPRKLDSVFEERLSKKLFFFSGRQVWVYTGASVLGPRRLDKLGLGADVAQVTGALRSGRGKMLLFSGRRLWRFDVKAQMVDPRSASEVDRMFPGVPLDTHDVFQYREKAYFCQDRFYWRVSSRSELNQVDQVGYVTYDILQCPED
Procedure, shortened: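 Human proMMP-2 and proMMP-9 were activated with 1 mM APMA (37 °C, 2 h), then used at 6.5 nM (MMP-2) or 10 nM (MMP-9) in Tris/NaCl/CaCl2/Brij 35 buffer, pH 7.5. Enzyme was preincubated with compound 30 min at RT; 25 μM DNP-Pro-Leu-Gly-Met-Trp-Ser-Arg substrate was added and fluorescence (ex 280/em 360 nm) followed 30 min. IC50 from logistic fits of Vmax.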

MMP-9 [2] = target: T1, MMP-9; test: De novo T-DEL selection against MMP-9, NGS decoding; assay type: binding; conditions: for MMP9 SL-C Enrichment Fold: enrichment fold of sub-library SL-C member; for MMP9 SL-C Enrichment Fold / MMP9 SL-C Count: MMP-9 selection, Figure 4a source data; for MMP9 SL-C Count: sequence count of sub-library SL-C member
From the text: (§1) Matrix metalloproteinases (MMPs) are zinc-dependent endopeptidases capable of degrading and remodeling extracellular matrix components[46],[47]. They are attractive therapeutic targets as high expression levels were detected in various diseases, such as inflammatory diseases, and at different stages of cancers, including metastasis, invasion, and angiogenesis[47]–[53]. As shown in Supplementary Fig. 3c, we performed selections against the two gelatinases (human MMP-2 and human MMP-9) to identify binding fragments for later design and synthesis of small molecule inhibitors. After selection, the three sub-libraries were decoded, and the enrichment was calculated by dividing the post-selection fraction (count/total counts) by the pre-selection fraction (Fig. 4a and Supplementary Fig. 13).
(§2) 4 µg of MMP-2/MMP-9 was dissolved in 100 µl of selection buffer containing 25 mM Tris-base, 10 mM CaCl2, 150 mM NaCl, 0.05% Tween 20, pH 7.5. 10 µl of 4-Aminophenylmercuric acetate (APMA) (100 mM) solution was added to the protein solution and incubated at 37 °C for 1 h. After activation, the solution was added on top of 40 µl pre-washed Ni-NTA resin and incubated for 30 min on a rotary shaker. The supernatant was discarded, and the resin was washed three times with the selection buffer.
(§3) For each independent selection, three sub-libraries were mixed in the selection buffer with a final concentration of 40 nM of each sub-library in 100 µl. The mixture was heat denatured at 90 °C for 1 min and slowly cooled down to allow the formation of the trio-pharmacophore library. The dynamic dual-pharmacophore DEL was provided by DyNAbind GmbH (Merck, DYNA001).
(§4) The assembled library was incubated with the protein-bound solid support for 2 h at RT on a rotary shaker. In parallel, selection on bare solid support served as the negative control to exclude promiscuous binders on the resin. After panning, the supernatant was discarded, and the resin was washed three times with 1 ml selection buffer. Finally, 100 µl of 50 mM Tris buffer, pH 7.4 was added to resuspend the resin and the resin was incubated at 95 °C for 5 min to denature the protein, release, and collect the bound library members.
(§5) The eluted library members were subjected to sample preparation for NGS. NGS preparation was achieved by two-step PCR. First, the individual selection was indexed using primers containing unique sequences corresponding to each selection. The amplified product was purified from 2% agarose gel. Second, the purified DNA from all selections were pooled in equal amount and subjected to the 2nd PCR step to attach sequences compatible with the NGS flow cell and the sequencing primers. NGS was performed by Novogene UK with Novaseq 6000. Raw data files (fastq files) obtained were decoded using a custom python script and excel. The sequence reads corresponding to each sample was retrieved by searching for the correct index unique to each selection. Then, the code region was extracted from each sequence and assigned to the corresponding identity. The count of each code in each selection sample was obtained by looping through the total reads and counting the occurrence of each code. The enrichment fold of each compound was calculated by first, dividing the count by the total count to get the abundance, second, the abundance after the selection was divided by the abundance of pre-selection to reflect the distribution change of the compound. Next, the enrichment fold was plotted against the count for each member of the library to give the scatter plots as in Fig. 4.

MMP-9 [3] = target: T1, MMP-9; test: Dynamic dual-pharmacophore DEL selection against MMP-9, NGS decoding; assay type: binding
From the text: as §1, §2, §3, §4, §5

[4] = read-out: Mean (MMP-9, Supplementary fig 16)
[5] = read-out: Mean (MMP-9 dose-response, Supplementary fig 15)
[6] = read-out: Mean (dose-response, Supplementary fig 17)
[7] = read-out: Normalized activity (Mean)

Cn1c(O)nc2cc(C(=O)O)cnc21 [Compound 826]
remaining activity at 0.12207 µM (MMP-9 [1]; Figure 5b, fragment concentration 0.12207 µM, read-out: Normalized activity (Mean)): 95.1%
remaining activity at 0.488281 µM (MMP-9 [1]; Figure 5b, fragment concentration 0.488281 µM, read-out: Normalized activity (Mean)): 93.3%
remaining activity at 1.95312 µM (MMP-9 [1]; Figure 5b, fragment concentration 1.95312 µM, read-out: Normalized activity (Mean)): 97.2%
remaining activity at 7.8125 µM (MMP-9 [1]; Figure 5b, fragment concentration 7.8125 µM, read-out: Normalized activity (Mean)): 99.6%
remaining activity at 31.25 µM (MMP-9 [1]; Figure 5b, fragment concentration 31.25 µM, read-out: Normalized activity (Mean)): 92%
remaining activity at 125 µM (MMP-9 [1]; Figure 5b, fragment concentration 125 µM, read-out: Normalized activity (Mean)): 94.2%
remaining activity at 500 µM (MMP-9 [1]; Figure 5b, fragment concentration 500 µM, read-out: Normalized activity (Mean)): 83%
remaining activity at 0.12 µM (MMP-9 [1]; MMP-9, concentration 0.12 µM, read-out: Mean (MMP-9, Supplementary fig 16)): 95.1%
remaining activity at 0.49 µM (MMP-9 [1]; MMP-9, concentration 0.49 µM, read-out: Mean (MMP-9, Supplementary fig 16)): 93.3%
remaining activity at 1.95 µM (MMP-9 [1]; MMP-9, concentration 1.95 µM, read-out: Mean (MMP-9, Supplementary fig 16)): 97.2%
remaining activity at 7.81 µM (MMP-9 [1]; MMP-9, concentration 7.81 µM, read-out: Mean (MMP-9, Supplementary fig 16)): 99.6%
remaining activity at 31.25 µM (MMP-9 [1]; MMP-9, concentration 31.25 µM, read-out: Mean (MMP-9, Supplementary fig 16)): 92%
remaining activity at 125 µM (MMP-9 [1]; MMP-9, concentration 125.00 µM, read-out: Mean (MMP-9, Supplementary fig 16)): 94.2%
remaining activity at 500 µM (MMP-9 [1]; MMP-9, concentration 500.00 µM, read-out: Mean (MMP-9, Supplementary fig 16)): 83%
remaining activity at 0.12 µM (MMP-9 [1]; MMP-9, concentration 0.12 µM, read-out: Mean (MMP-9 dose-response, Supplementary fig 15)): 95.1%
remaining activity at 0.12 µM (MMP-9 [1]; MMP-9, concentration 0.12 µM, read-out: Mean (dose-response, Supplementary fig 17)): 82.6%
remaining activity at 0.49 µM (MMP-9 [1]; MMP-9, concentration 0.49 µM, read-out: Mean (MMP-9 dose-response, Supplementary fig 15)): 93.3%
remaining activity at 0.49 µM (MMP-9 [1]; MMP-9, concentration 0.49 µM, read-out: Mean (dose-response, Supplementary fig 17)): 80.6%
remaining activity at 1.95 µM (MMP-9 [1]; MMP-9, concentration 1.95 µM, read-out: Mean (MMP-9 dose-response, Supplementary fig 15)): 97.2%
remaining activity at 1.95 µM (MMP-9 [1]; MMP-9, concentration 1.95 µM, read-out: Mean (dose-response, Supplementary fig 17)): 99.3%
remaining activity at 7.81 µM (MMP-9 [1]; MMP-9, concentration 7.81 µM, read-out: Mean (MMP-9 dose-response, Supplementary fig 15)): 99.6%
remaining activity at 7.81 µM (MMP-9 [1]; MMP-9, concentration 7.81 µM, read-out: Mean (dose-response, Supplementary fig 17)): 88.5%
remaining activity at 31.25 µM (MMP-9 [1]; MMP-9, concentration 31.25 µM, read-out: Mean (MMP-9 dose-response, Supplementary fig 15)): 92%
remaining activity at 31.25 µM (MMP-9 [1]; MMP-9, concentration 31.25 µM, read-out: Mean (dose-response, Supplementary fig 17)): 96.1%
remaining activity at 125 µM (MMP-9 [1]; MMP-9, concentration 125.00 µM, read-out: Mean (MMP-9 dose-response, Supplementary fig 15)): 94.2%
remaining activity at 125 µM (MMP-9 [1]; MMP-9, concentration 125.00 µM, read-out: Mean (dose-response, Supplementary fig 17)): 87.7%
remaining activity at 500 µM (MMP-9 [1]; MMP-9, concentration 500.00 µM, read-out: Mean (MMP-9 dose-response, Supplementary fig 15)): 83%
remaining activity at 500 µM (MMP-9 [1]; MMP-9, concentration 500.00 µM, read-out: Mean (dose-response, Supplementary fig 17)): 84%
inhibitory effect (MMP-9 [1]): No inhibitory effects could be measured; also recorded: did not exhibit meaningful activity
MMP9 SL-A Count (MMP-9 [2]; NGS sequence count of sub-library SL-A building block, de novo T-DEL selection against MMP-9): 1891
MMP9 SL-C Enrichment Fold (MMP-9 [2]): 4.359
MMP9 SL-C Count (MMP-9 [2]): 10836
MMP9 SL-A Enrichment Fold (MMP-9 [2]; sub-library SL-A building block, de novo T-DEL selection against MMP-9): 1.691
MMP9 3L Enrichment Fold (MMP-9 [3]; MMP9 selection, 3L library (Supplementary fig 13)): 4.359
MMP9 3L Count (MMP-9 [3]; MMP9 selection, 3L library, sequence count (Supplementary fig 13)): 10836
MMP9 5L Enrichment Fold (MMP-9 [3]; MMP9 selection, 5L library (Supplementary fig 13)): 1.703
MMP9 5L Count (MMP-9 [3]; MMP9 selection, 5L library, sequence count (Supplementary fig 13)): 1619

O=C(O)c1cncc(O)c1 [Compound 828]
inhibitory effect (MMP-9 [1]): high µM range
IC50 (MMP-9 [1]; mean ± SE, n.d: not detected, Fig. 5e prints no unit, µM, read-out: IC50): 271 ± 12.4 µM
remaining activity at 0.08 µM (MMP-9 [1]; [4]): 98.6%
remaining activity at 0.39 µM (MMP-9 [1]; [4]): 97.4%
remaining activity at 1.95 µM (MMP-9 [1]; [4]): 84.3%
remaining activity at 9.75 µM (MMP-9 [1]; [4]): 88.7%
remaining activity at 48.76 µM (MMP-9 [1]; [4]): 80.3%
remaining activity at 243.8 µM (MMP-9 [1]; [4]): 54.4%
remaining activity at 1219 µM (MMP-9 [1]; [4]): 0%
remaining activity at 0.08 µM (MMP-9 [1]; [5]): 98.6%
remaining activity at 0.39 µM (MMP-9 [1]; [5]): 97.4%
remaining activity at 1.95 µM (MMP-9 [1]; [5]): 84.3%
remaining activity at 9.75 µM (MMP-9 [1]; [5]): 88.7%
remaining activity at 48.76 µM (MMP-9 [1]; [5]): 80.3%
remaining activity at 243.8 µM (MMP-9 [1]; [5]): 54.4%
remaining activity at 1219 µM (MMP-9 [1]; [5]): 0%
remaining activity at 0.08 µM (MMP-9 [1]; [6]): 98.6%
remaining activity at 0.39 µM (MMP-9 [1]; [6]): 97.4%
remaining activity at 1.95 µM (MMP-9 [1]; [6]): 84.3%
remaining activity at 9.75 µM (MMP-9 [1]; [6]): 88.7%
remaining activity at 48.76 µM (MMP-9 [1]; [6]): 80.3%
remaining activity at 243.8 µM (MMP-9 [1]; [6]): 54.4%
remaining activity at 1219 µM (MMP-9 [1]; [6]): 0%
remaining activity at 0.078016 µM (MMP-9 [1]; [7]): 98.6%
remaining activity at 0.39008 µM (MMP-9 [1]; [7]): 97.4%
remaining activity at 1.9504 µM (MMP-9 [1]; [7]): 84.3%
remaining activity at 9.752 µM (MMP-9 [1]; [7]): 88.7%
remaining activity at 48.76 µM (MMP-9 [1]; [7]): 80.3%
remaining activity at 243.8 µM (MMP-9 [1]; [7]): 54.4%
remaining activity at 1219 µM (MMP-9 [1]; [7]): 0%
MMP9 SL-C Enrichment Fold (MMP-9 [2]): 10.2969
MMP9 SL-C Count (MMP-9 [2]): 32127
Enrichment Fold (MMP-9 [3]; MMP9 3L (3' sub-library members)): 10.2969
Count (MMP-9 [3]; MMP9 3L (3' sub-library members), NGS sequence count after selection): 32127
